Test results: patent US20120122923A1, “DUAL MOLECULES CONTAINING A PEROXIDE DERIVATIVE, THEIR SYNTHESIS AND THERAPEUTIC USES” (SANOFI-AVENTIS, priority 2006, published 2012)
Like-named read-outs stand apart in the source and are kept apart here.

Legend:
[1] = Metabolic stability on human hepatic microsomes; format: in vitro ADME; details: for Percentage metabolization: human hepatic microsomes 1 mg/ml, 5 μM substrate, 1 mM NADPH, 20 minutes at 37° C., degradation with respect to T0
Method: These experiments were carried out on human hepatic microsomes in the presence of NADPH cofactor, necessary for the activity of the principal enzymes, namely cytochromes P-450 (CYP) and flavine mono-oxygenases (FMO). […] After 20 minutes, the reaction was stopped by adding 1 volume of acetonitrile. The supernatant was then removed after centrifuging (speed 3000 g for 10 minutes at 4° C.). The supernatant was analysed by high performance liquid chromatography coupled to a mass spectrometer (LC-MS/MS) and the degradation of each of the test compounds was calculated as a percentage (%) with respect to T0. The microsomal fractions were prepared from human hepatic tissue deriving from at least 12 different donors and frozen at −80° C. The tissue was defrosted then dried, weighed and cut into thin sheets before homogenizing. The tissue was homogenized using a Potter-Elvejheim type homogenizer at +4° C. The tissue homogenates were then centrifuged at 10000 g for 30 minutes at +4° C. […] The residue was finally taken up into suspension in a final volume of KH2PO4/K2HPO4 buffer containing 20% (v/v) of glycerol (1 ml for 2 grams of tissue). The hepatic microsomal fractions obtained were divided into aliquots (500 μl), frozen rapidly in liquid nitrogen and kept frozen at −80° C. until use. concentration of microsomal proteins: 1 mg/ml; concentration of BSA (bovine serum albumin (BSA): 1 mg/ml; concentration of substrate (test compound): 5 μM; CYP and FMO co-factors: 1 mM NADPH; Phosphate buffer (pH 7.4): 10 mM. • The reaction was initiated by adding 1 mM of NADPH and incubating for 20 minutes at 37° C., with stirring. The reaction was stopped by adding 1 volume of cold acetonitrile. • Total incubation volume=300 μl

[2] = tested on: P. falciparum FcM29-Cameroon strain; assay: Chemosensitivity test (radioactive micromethod, tritiated hypoxanthine incorporation), FcM29-Cameroon strain; format: cell-based; details: Plasmodium falciparum, 48 h, read-out: IC50 (concentration required to inhibit parasite growth by 50%)
Method: (§1) Strains of P. falciparum were cultivated continuously using Trager and Jensen's method (Science, 1976, 193, 673-675): the parasites were maintained in human red blood corpuscles (O±), diluted to a blood parasite level of 2% in RPMI 1640 medium supplemented with 25 mM Hepes+24 mM NaHCO3+2 mM L-glutamine and complemented with 5% human serum from all groups.
(§2) The parasites were incubated at 37° C., in a moist atmosphere and 5% CO2.
The antimalarial activity tests were carried out using the radioactive micromethod of Desjardins et al. (Antimicrob. Agents Chemother., 1979, 16, 710-718). Each molecule was tested in triplicate. The tests were carried out in 96 well microplates. The P. falciparum strains were cultured in RPMI 1640 solutions complemented with 5% human serum with haematocrit at 2% and a blood parasite level of 1.5%. For each test, the parasites were incubated with decreasing concentrations of test compounds for 48 h at 37° C., in a moist atmosphere and 5% CO2. The artemisinin and chloroquine diphosphate were used as reference molecules. The first dilution of the test compounds was carried out at 1 mg/ml in dimethylsulphoxide. The dilution series for the successive daughter solutions was also prepared in dimethylsulphoxide. Each daughter dilution was then diluted to 1/50th in RPMI 1640 complemented with 5% human serum, all of the dilutions being made at 37° C. Said dilutions were then added to the parasites in culture in the microplates. After adding the test compound, the parasites were cultured in RPMI 1640 with 5% human serum and 1% dimethylsulphoxide. Parasite growth was measured by the incorporation of tritiated hypoxanthine (added 24 h after beginning exposure to the test compound) and compared with the incorporation in the absence of the test compound (taken as 100%). The values for IC50 (concentrations required to inhibit parasite growth by 50%) were determined by plotting the percentage inhibition as a function of the logarithm of the dose using GraphPad Prism 4® processing software (GraphPad software, Inc., 5755 Oberlin Drive, #110, San Diego, Calif. 92121, USA).

[3] = tested on: P. falciparum FcB1-Columbia strain; assay: Chemosensitivity test (radioactive micromethod, tritiated hypoxanthine incorporation), FcB1-Columbia strain; format: cell-based; details: Plasmodium falciparum, read-out: IC50 (concentration required to inhibit parasite growth by 50%)
Method: as §1, §2
The antimalarial activity tests were carried out using the radioactive micromethod of Desjardins et al. (Antimicrob. Agents Chemother., 1979, 16, 710-718). Each molecule was tested in triplicate. The tests were carried out in 96 well microplates. The P. falciparum strains were cultured in RPMI 1640 solutions complemented with 5% human serum with haematocrit at 2% and a blood parasite level of 1.5%. For each test, the parasites were incubated with decreasing concentrations of test compounds for 48 h at 37° C., in a moist atmosphere and 5% CO2. The artemisinin and chloroquine diphosphate were used as reference molecules. The first dilution of the test compounds was carried out at 1 mg/ml in dimethylsulphoxide. […] Parasite growth was measured by the incorporation of tritiated hypoxanthine (added 24 h after beginning exposure to the test compound) and compared with the incorporation in the absence of the test compound (taken as 100%). […]

[4] = human hepatic microsomes, from Table 2
[5] = FcM29-Cameroon strain (very strongly chloroquine-resistant), in human red blood corpuscles

Structure (SMILES)	Percentage metabolization [1]	melting point	other results
CC(C)C1=C[C@H]2OC3(CCC(NCCNc4ccnc5cc(Cl)ccc45)CC3)OO[C@H]2CC1 (some centres unmarked) [DU1302, reference compound]	95-100%	–	–
CC1(C)COC2(CCC(N[C@@H]3CCCC[C@H]3Nc3ccnc4cc(Cl)ccc34)CC2)OO1 (stereo partly drawn) [PA1188, N-(7-chloro-quinolin-4-yl)-N′-(3,3-dimethyl-1,2,5-trioxa-spiro[5.5]undec-9-yl)-cyclohexane-trans-1,2-diamine]	–	–	IC50 [2, 5]: 4 nM
CCN(CC)CCCC(C)Nc1ccnc2cc(Cl)ccc12 (centres unmarked) [chloroquine, reference compound]	29%	–	IC50 ([3]; FCB1, 48 h): 66 nM; IC50 [2]: 258 nM
C[C@H]1[C@H](OC(=O)CCC(=O)O)O[C@@H]2O[C@@]3(C)CC[C@H]4[C@H](C)CC[C@@H]1[C@@]24OO3 [artesunate, reference compound]	100%	–	–
C[C@@H]1CC[C@H]2[C@@H](C)C(=O)O[C@@H]3O[C@@]4(C)CC[C@@H]1[C@]32OO4 [artemisinin, reference compound]	–	–	IC50 ([3]; FcB1-Columbia strain (moderately chloroquine-resistant), in human red blood corpuscles, 48 h): 11 nM; IC50 [2, 5]: 5 nM

Further lines, with some results ahead:

Percentage metabolization [1]	melting point	Structure (SMILES)	other results
11%	176 °C (dec.)	CC1(C)COC2(CCC(NC3CCC(Nc4ccnc5cc(Cl)ccc45)CC3)CC2)OO1 (stereo not drawn) [PA1103, N-(7-chloro-quinolin-4-yl)-N′-(3,3-dimethyl-1,2,5-trioxa-spiro[5.5]undec-9-yl)-cyclohexane-trans-1,4-diamine]	times less degraded than chloroquine [1, 4]: about 3 times; times less degraded than the prior art compounds [1, 4]: about 10 times; stability in human hepatic microsomes compared with the other test compounds ([1]; in words): much more stable; IC50 [2, 5]: 6 nM
–	193 °C (dec.)	CN(C)c1ccc2nccc(NC3CCC(NC4CCC5(CC4)OCC(C)(C)OO5)CC3)c2c1 (stereo not drawn) [PA1253, N-(3,3-dimethyl-1,2,5-trioxa-spiro[5.5]undec-9-yl)-N′-(6-dimethylamino-quinolin-4-yl)-cyclohexane-trans-1,4-diamine]	–
98%	–	Clc1ccc2c(NCCN3CCC4(CC3)OCC3(CCCCC3)OO4)ccnc2c1 [PA1110, reference compound]	–
–	166 °C (dec.)	CC1OOC2(CCC(NC3CCC(Nc4ccnc5cc(Cl)ccc45)CC3)CC2)OC1C (stereo not drawn) [PA1255, N-(7-chloro-quinolin-4-yl)-N′-(3,4-dimethyl-1,2,5-trioxa-spiro[5.5]undec-9-yl)-cyclohexane-trans-1,4-diamine]	–
–	165 °C (dec.)	CC1(C)COC2(CCC(NC3CCC(Nc4ccnc5ccc(OC(F)(F)F)cc45)CC3)CC2)OO1 (stereo not drawn) [PA1305, N-(6-trifluoromethoxy-quinolin-4-yl)-N′-(3,3-dimethyl-1,2,5-trioxa-spiro[5.5]undec-9-yl)-cyclohexane-trans-1,4-diamine]	–
–	168 °C (dec.)	CC1(C)COC2(CCC(NC3CCC(Nc4cc(C(F)(F)F)nc5c(C(F)(F)F)cccc45)CC3)CC2)OO1 (stereo not drawn) [PA1251, N-(2,8-bis-trifluoromethyl-quinolin-4-yl)-N′-(3,3-dimethyl-1,2,5-trioxa-spiro[5.5]undec-9-yl)-cyclohexane-trans-1,4-diamine]	–
–	166.5 °C (dec.)	CC1(C)COC2(CCC(NC3CCC(Nc4ccnc5cc(C(F)(F)F)ccc45)CC3)CC2)OO1 (stereo not drawn) [PA1252, N-(3,3-dimethyl-1,2,5-trioxa-spiro[5.5]undec-9-yl)-N′-(7-trifluoromethyl-quinolin-4-yl)-cyclohexane-trans-1,4-diamine]	–
